Experiments:
PC-3.Sluc cells tumors = experiment: PC-3.Sluc tumor xenografts in Balb/c nu/nu mice, light emission (RLUs); format: in vivo
Description: For the purpose of determining if Varubin has an in vivo antitumor activity, its effects in mice having tumors formed from PC-3 cells were analyzed. The experimental tumors were formed by means of the intramuscular inoculation of PC-3.Sluc cells. The latter are PC-3 prostate cells in which they have been integrated by means of transfecting plasmid pRC/CMV-luc, which expresses the firefly (Photinus pyralis) luciferase gene in mammalian cells q. The incubation of the PC-3.luc cells with D-luciferin, a luciferase substrate, produces light, which can be quantified in an absolute manner (number of photons) either by means of a luminometer or by means of detection with a CCD (charge-coupled device) camera. The latter process further allows representing in real time images of the location of the tumor cells in the inoculated animals, as well as the tumor size, since the intensity of the light (number of photons) emitted in the presence of luciferin is directly proportional to the number of PC-3.luc cells.
For these studies, 24 male Balb/c nu/nu mice (Charles River Laboratories) of an age of 6 weeks were used. These animals were kept in a pathogen-free environment at all times, having been kept in the animal housing facility for 1 week after they were received, before the experimental handling. After being anesthetized by means of an intraperitoneal (i.p.) injection of a mixture at equal parts of 6 mg/Kg of droperidol (Roche, Basel, Switzerland) and 12 mg/Kg of midazolam (Rovi S.A, Madrid, Spain), intramuscular (i.m.) injections were performed both in the right leg and in the left leg of each animal of 1×10^6 PC-3.Sluc cells, suspended in 100 μL of fetal bovine serum-free culture medium. The development of tumors in the inoculation sites was allowed for 2 weeks, after which a first measurement of photons emitted was made and a first capture of images with an ORCA-2BT Imaging System instrument (Hammamatsu Photonics) provided with a C4742-98-LWG-MOD model CCD camera (cooled at −80° C.) was done at a resolution of 512×512 pixels. […] Four minutes later, photons were detected and quantified for 5 minutes in the instrument described above. […] The quantification and the analysis of photons were performed with the aid of the image analysis program WASABI (Hamamatsu Photonics). […] For the graphic representations, the quantitative data (RLUs) were standardized, for each tumor, in relation to the RLUs of day 0 of treatment.
The 24 mice, having luminescent tumors in both legs, were included in 4 experimental groups: (1) Control group, in which an intravenous (i.v.) injection of 100 μL of phosphate buffered saline pH 7.4 (PBS) and 50 μL of intratumoral (i.t.) PBS was performed. […] The light emission of the tumors was analyzed throughout 56 days from the start of the treatment.

UBC13-UEV1 = biological target: T1, UBC13-UEV1 (Homo sapiens, UniProt P61088); experiment: In vitro free polyubiquitin chain formation assay; format: biochemical
T1 construct: GST (N); made in house; host or cells: Escherichia coli BL21
T1 sequence (P61088 1-152): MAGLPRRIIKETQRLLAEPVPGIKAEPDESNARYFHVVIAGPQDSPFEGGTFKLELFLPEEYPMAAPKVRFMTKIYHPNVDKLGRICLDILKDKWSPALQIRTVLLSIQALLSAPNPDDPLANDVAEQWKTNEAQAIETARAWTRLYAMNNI
Description: As described in the Background, K63 type polyubiquitylation catalyzed by UBC13-UEV1 requires the interaction between both subunits of the heterodimer. […] In this assay, the formation of polyubiquitin chains in reactions containing 0.1 μM of E1 enzyme (Boston Biochem), 0.2 μM of UBC13, 0.2 μM of UEV1 (produced as described in Example 4), 117 μM of wild-type ubiquitin (Biomol UW8795) or mutated in all the lysines except the lysine in position 63 (ubiquitin K63) or in position 48 (ubiquitin K48; Boston Biochem), is allowed in a reaction buffer with 50 mM of Tris-HC at pH 7.6, 5 mM of MgCl2 and 0.5 mM of dithiothreitol. For the treatments with compound Ia (Varubin), UBC13 was pre-incubated for 10 minutes at room temperature with 100 μM of the compound before being added to the reaction. The reaction was initiated by means of adding 2 mM of ATP, and it was performed by means of incubating at 37° C. at different times, being stopped by means of adding Laemmli buffer (250 mM Tris-HCl, 10% SDS, 500 mM DTT, 0.5% bromophenol blue and 50% glycerol at pH 6.8) and boiling for 3 minutes. The samples were separated electrophoretically in polyacrylamide-SDS gels and transferred electrophoretically to PVDF membranes.

HeLa cells = experiment: CyQuant cell count, sensitization to etoposide; details: HeLa cells, 100 μM of compound Ia
PC-3 cells = experiment: CyQuant cell count, sensitization to doxorubicin; format: cell-based, human; details: 100 μM of compound Ia
Description: The addition of 100 μM of Ia reduced the IC50 of doxorubicin to 0.1 μM for PC-3 cells and the IC50 of etoposide to 0.04 μM for HeLa cells. Therefore, the treatment with 100 μM of compound Ia causes a sensitization to the cytotoxic effects of doxorubicin of 5 times (PC-3 cells) and a sensitization to the cytotoxic effects of etoposide of 30 times (HeLa cells).

In the case of `NC(=O)CN(CCc1ccccn1)C(=O)C1CC(=O)N(CCc2ccc(F)cc2)CC(=O)N1CCc1ccc(F)cc1` (centres unmarked) [Ia, N-aminocarbamoylmethyl-N-(2′-(2″pyridyl)ethyl)-1,4-bis[2′-(4″-fluorophenyl)ethyl]-3,7-dioxo-[1,4]diazepane-5-carboxamide], the “antitumor activity in tumors transplanted in nu/nu mice” value (PC-3.Sluc cells tumors; 100 μM, intramuscular injection) is reported as “shows antitumor activity”, the “tumor growth (RLUs)” value (PC-3.Sluc cells tumors; Varubin alone, 100 μM in 50 μL of PBS, i.t./i.m., twice a week, 56 days) is reported as “very limited growth” and the “tumor growth (RLUs), combined treatment” value (PC-3.Sluc cells tumors; doxorubicin i.v. 5 mg/Kg once a week plus Varubin 100 μM twice a week, 56 days) is reported as “did not grow significantly”. The “type of inhibition of the enzymatic activity of UBC13-UEV1” value (UBC13-UEV1; 100 μM, slopes of the curves) was “competitive type”, the “inhibition of polyubiquitylation with ubiquitin K63 as substrate” value (UBC13-UEV1; 100 μM, ubiquitin K63) was “efficiency similar to when the substrate is wild-type ubiquitin” and the “rate of generation of polyubiquitylated forms” value (UBC13-UEV1; UBC13 pre-incubated with 100 μM, wild-type ubiquitin) was “lower rate of generation of polyubiquitylated forms”. The “sensitization to the cytotoxic effects of etoposide” value (HeLa cells) was 30 times and the “sensitization to the cytotoxic effects of doxorubicin” value (PC-3 cells) was 5 times.

— patent US8785430B2, “Compound that can inhibit UBC13-UEV interactions, pharmaceutical compositions and therapeutic uses” (Consejo Superior de Investigaciones Cientificas, priority 2006, dated 2014)
